The source of these data is ChEMBL document CHEMBL1158215, “Three new cytotoxic sesterterpenes from the marine sponge Hyrtios cf. erectus” (J Nat Prod, 1996).

≈ marks a conversion by molar mass, not a printed value.

This experiment deals with P388. Nature of the experiment: Cytotoxicity against mouse P388 cells. It counts as functional, cell-based.
Regarding `CC1(C)CCC[C@]2(C)[C@H]3C[C@@H](O)[C@]4(C)[C@H]5OC(=O)C=C5[C@@H](O)C[C@H]4[C@]3(C)CC[C@@H]12`, the 50% inhibitory concentration (IC50) is 0.4 µg/mL (≈ 0.994 µM).
Under `CC(=O)OC[C@]1(C)CCC[C@]2(C)[C@H]3CC[C@@]4(C)[C@@H](CC=C5C(=O)O[C@@H](O)[C@@H]54)[C@]3(C)CC[C@@H]12` stands 0.9 µg/mL (≈ 2.02 µM).
`CC(=O)O[C@@H]1C[C@@H]2[C@@]3(C)CCCC(C)(C)[C@@H]3CC[C@@]2(C)[C@@H]2C[C@H](O)C3=CC(=O)O[C@@H]3[C@@]12C` gave a half-maximal inhibitory concentration (IC50) of 2.1 µg/mL (≈ 4.72 µM).
